Experiments:
Type in all cases: cell-based
CK1α = target: T1, CK1α (Homo sapiens, UniProt P48729+Q96SW2); assay: HiBiT degradation assay, CK1α, Procedure A; details: six hours incubation
T1 construct: CSNK1A1-HiBit KI HEK293(LgBit) Cells; host or cells: HEK293(LgBit) knock-in cells
Procedure, shortened: (§1)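 10-pt dose response, 10–0.005 μM, 0.1% DMSO; cells 1×10^6/ml in DMEM/10% FBS, 6 h, 37° C; HiBiT lytic detection, luminescence; DC50 + Ymin by 4-parameter fit.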

GSPT1 = GSPT1 (Homo sapiens, UniProt P15170+Q96SW2); assay: HiBiT degradation assay, GSPT1, Procedure A; parameters: HiBit-GSPT1 KI HEK293(LgBit) Cells; host or cells: HEK293(LgBit) knock-in cells; details: six hours incubation
GSPT1, sequence (P15170 whole entry): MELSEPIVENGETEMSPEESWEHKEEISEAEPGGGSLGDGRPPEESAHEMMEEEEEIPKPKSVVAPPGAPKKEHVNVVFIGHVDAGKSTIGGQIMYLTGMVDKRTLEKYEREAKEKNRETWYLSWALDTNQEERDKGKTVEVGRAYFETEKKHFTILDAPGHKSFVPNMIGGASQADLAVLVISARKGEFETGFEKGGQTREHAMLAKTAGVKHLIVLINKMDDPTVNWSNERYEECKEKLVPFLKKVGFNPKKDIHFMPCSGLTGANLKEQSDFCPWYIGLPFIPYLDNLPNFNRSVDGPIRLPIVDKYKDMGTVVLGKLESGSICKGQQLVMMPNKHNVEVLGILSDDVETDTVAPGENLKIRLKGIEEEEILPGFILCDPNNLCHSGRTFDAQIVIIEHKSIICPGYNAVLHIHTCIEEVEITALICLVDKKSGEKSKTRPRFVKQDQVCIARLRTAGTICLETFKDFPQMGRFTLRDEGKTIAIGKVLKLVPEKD
GSPT1, sequence (Q96SW2 whole entry): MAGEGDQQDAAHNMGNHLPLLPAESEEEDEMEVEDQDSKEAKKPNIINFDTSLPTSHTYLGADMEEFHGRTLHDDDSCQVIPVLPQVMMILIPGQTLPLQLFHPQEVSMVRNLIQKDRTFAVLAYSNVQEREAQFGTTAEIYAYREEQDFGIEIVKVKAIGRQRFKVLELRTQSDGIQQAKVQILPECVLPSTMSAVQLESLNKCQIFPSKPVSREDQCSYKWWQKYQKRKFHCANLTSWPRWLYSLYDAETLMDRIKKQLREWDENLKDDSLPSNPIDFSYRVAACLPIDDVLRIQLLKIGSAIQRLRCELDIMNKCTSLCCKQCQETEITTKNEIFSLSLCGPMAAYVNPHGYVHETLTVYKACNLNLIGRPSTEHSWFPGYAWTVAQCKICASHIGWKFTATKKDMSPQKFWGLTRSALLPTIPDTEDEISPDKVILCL
GSPT1, sequence (Q16531 whole entry partner): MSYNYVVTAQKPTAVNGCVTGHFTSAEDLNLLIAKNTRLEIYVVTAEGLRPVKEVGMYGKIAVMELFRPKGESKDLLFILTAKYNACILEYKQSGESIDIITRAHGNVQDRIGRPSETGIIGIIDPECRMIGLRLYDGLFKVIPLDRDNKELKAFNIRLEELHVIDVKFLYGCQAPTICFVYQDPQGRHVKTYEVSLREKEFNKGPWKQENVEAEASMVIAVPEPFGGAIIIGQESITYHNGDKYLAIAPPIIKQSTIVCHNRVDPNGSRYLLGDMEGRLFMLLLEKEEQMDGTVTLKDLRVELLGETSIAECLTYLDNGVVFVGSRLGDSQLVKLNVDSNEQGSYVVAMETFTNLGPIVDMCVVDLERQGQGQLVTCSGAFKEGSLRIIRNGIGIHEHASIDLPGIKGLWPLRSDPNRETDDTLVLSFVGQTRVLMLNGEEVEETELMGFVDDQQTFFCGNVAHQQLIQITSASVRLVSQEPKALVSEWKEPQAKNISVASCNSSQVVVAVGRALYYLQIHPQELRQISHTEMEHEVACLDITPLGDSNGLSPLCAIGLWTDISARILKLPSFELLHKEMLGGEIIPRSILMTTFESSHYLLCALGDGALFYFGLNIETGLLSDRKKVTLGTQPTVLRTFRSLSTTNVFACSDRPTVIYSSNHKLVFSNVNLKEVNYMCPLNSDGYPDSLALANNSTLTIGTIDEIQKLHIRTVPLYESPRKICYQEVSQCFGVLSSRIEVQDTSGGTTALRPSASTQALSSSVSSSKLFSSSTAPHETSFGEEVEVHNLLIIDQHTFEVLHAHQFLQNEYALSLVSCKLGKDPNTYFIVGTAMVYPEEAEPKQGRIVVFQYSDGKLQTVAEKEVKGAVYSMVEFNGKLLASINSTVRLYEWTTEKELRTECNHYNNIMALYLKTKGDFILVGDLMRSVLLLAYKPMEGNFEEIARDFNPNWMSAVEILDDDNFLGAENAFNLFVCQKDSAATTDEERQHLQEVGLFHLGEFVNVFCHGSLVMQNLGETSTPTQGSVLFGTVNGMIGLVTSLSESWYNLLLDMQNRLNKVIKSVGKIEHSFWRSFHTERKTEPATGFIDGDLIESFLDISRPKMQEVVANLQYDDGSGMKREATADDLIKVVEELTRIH
Procedure, shortened: as §1

Z-138 cells = assay: Z-138 Proliferation Assay (Cell Titer-Glo); details: 72 hours; for Ymin (%): % remaining (percent of DMSO control); for EC50: Homo sapiens, Cell Titer-Glo, 4-parameter curve fit
Method: Z-138 Proliferation Assay
Z-138 cells were cultured in IMDM Medium supplemented with 10% heat in-activated fetal bovine serum and 1% Penicillin-Streptomycin.
10 mM stocks of compound were made from fresh powder. DMSO was added to solid compound so that the final concentration was 10 mM. Compounds were vortexed and allowed to sit for 5 minutes to ensure complete solubility. Solvated compound was aliquoted into 1 ml Eppendorf tubes and stored in a −20° C. freezer.
Z-138 cells were maintained in culture using standard cell culturing techniques.
Cells were maintained at a density of 0.8×10^6 cells/ml.
Re-constitute cell titer-glo reagent according to manufacturer's protocol.
Z-138 cells were removed from culture and cell viability and density were determined using a CellDrop™ Automated Cell Counter with Tryphan blue stain according to manufacturer's protocols. Cells were centrifuged and resuspended using fresh media to a cell density of 0.1×10^6 cells/ml. […] 40 μl of cell suspension was added to the wells of a 384 well tissue culture plate (4,000 cells/well final). Upon completing the addition of the cells to the plate, the plates were centrifuged for 30 seconds at 300 rpms to help the cells settle and to bring air bubbles to the top of the wells. Air bubbles were popped using a pipette tip.
10-point dose response curves were performed using a D300e Digital Dispenser. The highest concentration of compound used in the assay was 10,000 nM. 1:2 dilutions were performed over a 10-point range with the final DMSO concentration being 0.1%. The cells were cultured for 72 hours in the presence of compound.
After 72 hours, the cell plates were removed from the incubator and allowed to equilibrate to room temperature (about 15 minutes). 20 μl of cell titer-glo reagent was added to each well of the 384 well plate. Incubated the plate for 30 minutes in the dark. After 30 minutes, ensured that there were no air bubbles in the plate (popped bubbles with pipette tip if necessary) and analyzed plate using a luminometer.
EC50 curves were generated using Prism Graph Pad. In brief, POCs (percent of control, compound/DMSO control×100) were plotted against the compound concentrations (log scale). EC50 curves were generated using a 4-parameter curve fit.

T1 sequence (P48729 whole entry): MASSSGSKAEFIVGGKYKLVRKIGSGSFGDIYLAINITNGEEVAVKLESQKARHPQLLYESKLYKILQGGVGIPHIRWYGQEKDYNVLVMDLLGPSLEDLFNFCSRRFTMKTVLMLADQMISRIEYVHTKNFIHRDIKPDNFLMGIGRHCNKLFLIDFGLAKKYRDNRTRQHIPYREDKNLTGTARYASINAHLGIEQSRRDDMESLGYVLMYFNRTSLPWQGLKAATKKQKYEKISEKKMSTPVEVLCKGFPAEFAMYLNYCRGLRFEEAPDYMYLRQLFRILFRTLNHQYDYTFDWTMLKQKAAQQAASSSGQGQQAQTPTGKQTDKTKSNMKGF
T1 sequence (Q96SW2 whole entry): as the sequence (Q96SW2 whole entry) above
T1 sequence (Q16531 whole entry partner): as the sequence (Q16531 whole entry partner) above

CK1α Ymin (CK1α)	DC50 (CK1α) [nM]	DC50 (GSPT1) [nM]	GSPT1 Ymin (GSPT1)	Compound	Ymin (%) (Z-138 cells)	EC50 (Z-138 cells) [nM]
C (C = 0-10% remaining)	< 25	≥ 25	E (E = >25-75% remaining)	Cc1c(-c2ccccc2)c(-c2ccc3c(c2)CN(C2CCC(=O)NC2=O)C3=O)nn1C (stereo not drawn) [Example 17, 3-(5-(1,5-Dimethyl-4-phenyl-1H-pyrazol-3-yl)-1-oxoisoindolin-2-yl)piperidine-2,6-dione]	D (0-10% remaining)	< 10
C (C = 0-10% remaining)	< 25	≥ 25	E (E = >25-75% remaining)	Cc1nc(-c2ccc3c(c2)CN(C2CCC(=O)NC2=O)C3=O)c(-c2ccccc2)o1 (stereo not drawn) [Example 19, 3-(5-(2-Methyl-5-phenyloxazol-4-yl)-1-oxoisoindolin-2-yl)piperidine-2,6-dione]	D (0-10% remaining)	< 10
C (C = 0-10% remaining)	< 25	≥ 25	F (F = >75-100% remaining)	Cn1cc(-c2ccc3c(c2)CN(C2CCC(=O)NC2=O)C3=O)nc1-c1ccccc1 (stereo not drawn) [Example 25, 3-(5-(1-Methyl-2-phenyl-1H-imidazol-4-yl)-1-oxoisoindolin-2-yl)piperidine-2,6-dione]	D (0-10% remaining)	< 10
D (D = >10- 25% remaining)	< 25	< 25	E (E = >25-75% remaining)	O=C1CCC(N2Cc3cc(-c4cn(-c5ccccc5)cn4)ccc3C2=O)C(=O)N1 (stereo not drawn) [Example 32, 3-(1-Oxo-5-(1-phenyl-1H-imidazol-4-yl)isoindolin-2-yl)piperidine-2,6-dione]	D (0-10% remaining)	< 10
D (D = >10- 25% remaining)	< 25	≥ 25	F (F = >75-100% remaining)	O=C1CCC(N2Cc3cc(-c4ccn(-c5ccccc5)n4)ccc3C2=O)C(=O)N1 (stereo not drawn) [Example 34, 3-(1-Oxo-5-(1-phenyl-1H-pyrazol-3-yl)isoindolin-2-yl)piperidine-2,6-dione]	E (>10-25% remaining)	10 to 100
D (D = >10- 25% remaining)	< 25	≥ 25	F (F = >75-100% remaining)	Cn1nc(-c2ccc3c(c2)CN(C2CCC(=O)NC2=O)C3=O)cc1-c1ccccc1 (stereo not drawn) [Example 36, 3-(5-(1-Methyl-5-phenyl-1H-pyrazol-3-yl)-1-oxoisoindolin-2-yl) piperidine-2,6-dione]	E (>10-25% remaining)	10 to 100
D (D = >10- 25% remaining)	< 25	≥ 25	F (F = >75-100% remaining)	O=C1CCC(N2Cc3cc(-c4coc(-c5ccccc5)n4)ccc3C2=O)C(=O)N1 (stereo not drawn) [Example 37, 3-(1-Oxo-5-(2-phenyloxazol-4-yl)isoindolin-2-yl)piperidine-2,6-dione]	F (>25-50% remaining)	10 to 100
E (E = >25-75% remaining)	< 25	≥ 25	F (F = >75-100% remaining)	O=C1CCC(N2Cc3cc(-c4cnoc4-c4ccccc4)ccc3C2=O)C(=O)N1 (stereo not drawn) [Example 39, 3-(1-Oxo-5-(5-phenylisoxazol-4-yl)isoindolin-2-yl)piperidine-2,6-dione]	D (0-10% remaining)	100 to 500
D (D = >10- 25% remaining)	< 25	< 25	D (D = >10- 25% remaining)	Cn1c(-c2ccccc2)cnc1-c1ccc2c(c1)CN(C1CCC(=O)NC1=O)C2=O (stereo not drawn) [Example 40, 3-(5-(1-Methyl-5-phenyl-1H-imidazol-2-yl)-1-oxoisoindolin-2-yl)piperidine-2,6-dione]	D (0-10% remaining)	< 10
D (D = >10- 25% remaining)	< 25	≥ 25	F (F = >75-100% remaining)	Cn1cc(-c2ccccc2)nc1-c1ccc2c(c1)CN(C1CCC(=O)NC1=O)C2=O (stereo not drawn) [Example 41, 3-(5-(1-Methyl-4-phenyl-1H-imidazol-2-yl)-1-oxoisoindolin-2-yl)piperidine-2,6-dione]	D (0-10% remaining)	10 to 100
D (D = >10- 25% remaining)	< 25	≥ 25	F (F = >75-100% remaining)	O=C1CCC(N2Cc3cc(-c4cc(-c5ccccc5)no4)ccc3C2=O)C(=O)N1 (stereo not drawn) [Example 43, 3-(1-Oxo-5-(3-phenylisoxazol-5-yl)isoindolin-2-yl)piperidine-2,6-dione]	F (>25-50% remaining)	100 to 500
C (C = 0-10% remaining)	< 25	≥ 25	F (F = >75-100% remaining)	Cn1cc(-c2c(-c3ccc4c(c3)CN(C3CCC(=O)NC3=O)C4=O)nc(C3CC3)n2C)cn1 (stereo not drawn) [Example 46, 3-(5-(2-Cyclopropyl-1-methyl-5-(1-methyl-1H-pyrazol-4-yl)-1H-imidazol-4-yl)-1-oxoisoindolin-2-yl)piperidine-2,6-dione]	D (0-10% remaining)	< 10
C (C = 0-10% remaining)	< 25	< 25	D (D = >10- 25% remaining)	O=C1CCC(N2Cc3cc(-c4nccn4C4CCCCC4)ccc3C2=O)C(=O)N1 (stereo not drawn) [Example 48, 3-(5-(1-Cyclohexyl-1H-imidazol-2-yl)-1-oxoisoindolin-2-yl)piperidine-2,6-dione]	D (0-10% remaining)	< 10
C (C = 0-10% remaining)	< 25	≥ 25	F (F = >75-100% remaining)	CCn1nc(-c2ccccc2)c(-c2ccc3c(c2)CN(C2CCC(=O)NC2=O)C3=O)n1 (stereo not drawn) [Example 51, 3-(5-(2-Ethyl-5-phenyl-2H-1,2,3-triazol-4-yl)-1-oxoisoindolin-2-yl)piperidine-2,6-dione]	D (0-10% remaining)	10 to 100
C (C = 0-10% remaining)	< 25	< 25	F (F = >75-100% remaining)	Cn1c(C(F)(F)F)nc(-c2ccc3c(c2)CN(C2CCC(=O)NC2=O)C3=O)c1-c1ccccc1 (stereo not drawn) [Example 52, 3-(5-(1-Methyl-5-phenyl-2-(trifluoromethyl)-1H-imidazol-4-yl)-1-oxoisoindolin-2-yl)piperidine-2,6-dione]	D (0-10% remaining)	< 10
C (C = 0-10% remaining)	< 25	≥ 25	F (F = >75-100% remaining)	COc1ccc(-c2c(-c3ccc4c(c3)CN(C3CCC(=O)NC3=O)C4=O)cnn2C)c(F)c1 (stereo not drawn) [Example 64]	E (>10-25% remaining)	< 10
D (D = >10- 25% remaining)	< 25	≥ 25	F (F = >75-100% remaining)	Cc1ccc(-c2c(-c3ccc4c(c3)CN(C3CCC(=O)NC3=O)C4=O)cnn2C)cc1 (stereo not drawn) [Example 72]	E (>10-25% remaining)	10 to 100
D (D = >10- 25% remaining)	< 25	≥ 25	C (C = 0-10% remaining)	Cn1cnc(-c2ccc3c(c2)CN(C2CCC(=O)NC2=O)C3=O)c1-c1ccc(F)c(C#N)c1 (stereo not drawn) [Example 184]	D (0-10% remaining)	10 to 100
D (D = >10- 25% remaining)	< 25	≥ 25	F (F = >75-100% remaining)	O=C1CCC(N2Cc3cc(-c4cnn5c4-c4ccccc4C5)ccc3C2=O)C(=O)N1 (stereo not drawn) [Example 212, 3-(1-Oxo-5-(8H-pyrazolo[5,1-a]isoindol-3-yl)isoindolin-2-yl)piperidine-2,6-dione]	D (0-10% remaining)	100 to 500

Source: patent publication US20240158370A1, “CK1 alpha AND DUAL CK1 alpha / GSPT1 DEGRADING COMPOUNDS” (Innovo Therapeutics, Inc., priority 2022, published 2024)
